Test results taken from PMC6212553, “Baicalein Enhances the Oral Bioavailability and Hepatoprotective Effects of Silybin Through the Inhibition of Efflux Transporters BCRP and MRP2” (Frontiers in Pharmacology, 2018).
Read-outs that look alike come from different tables or passages of the source.

Assay: Bidirectional transport of silybin across Caco-2 cell monolayers
Assay type: in vitro ADME, Human
Conditions: human
Method: Human colon epithelial cell line (Caco-2) was purchased from American Type Culture Collection (Manassas, VA, United States) and frozen at -80°C. Wild type MDCK II, MDR1-MDCK II, BCRP-MDCK II, and MRP2-MDCK II cells were kindly supplied by the Netherlands Cancer Institute (Amsterdam, Netherlands). Transport study was carried out with Caco-2 cells, and MDCK II cells were transfected using a previously established method with slight modifications ([Yuan et al., 2017]). The Caco-2 cells were cultured at 37°C/5% CO2 in Dulbecco's modified Eagle's medium (DMEM) supplemented with 10% fetal bovine serum, 1% nonessential amino acids, and 1% penicillin-streptomycin. The Caco-2 cells were seeded onto polyester filter membranes in a 12-well Transwell® plate (Corning Costar Co., NY, United States) with 0.6 × 10^5 cells/cm^2. The monolayer cells were used for transport assays between 21 and 23 days. The MDCKII cells were seeded on transwell plates with a density of 2.0 × 10^5 cells/cm^2 and grown for 4-5 days to form a confluent monolayer. Bidirectional transport assays for Caco-2 and MDCK II cells were performed by adding silybin (10 μM) in assay buffer into either the apical (AP; A-to-B) or basolateral (BL; […] For inhibition studies, Caco-2 or MDCK II cell monolayers in both apical and basolateral chambers were preincubated with the inhibitor for 30 min. The fluorescence intensity of the sample collected from the AP or BL side was immediately detected in a 96-well black plate by the Microplate UV/VIS spectrophotometer (TECAN Infinite […], Männedorf, Switzerland). For liquid chromatography tandem-mass spectrometry (LC-MS/MS) analysis, the sample (100 μl) was mixed with methanol (50 μl) containing internal standard (25 ng/ml) and was stored at -80°C. The formula for calculating apparent permeability coefficient (Papp) values is as follows: (1) […] where dQ/dt (mM/s) represents the rate of permeation of the drug across the cells, C0 (mM) refers to the concentration in the donor compartment at time zero calculated from dosing solution, and A (cm^2) refers to the area of the cell monolayer. Papp (B-A) is the Papp value measured in the B to A direction, and Papp (A-B) is the Papp value measured in the A to B direction. The efflux ratio is given as ER = Papp (B to A)/Papp (A to B).

[1] = Caco-2, silybin 10 μM, co-treatment with baicalein 5 μM, read-out: efflux ratio
[2] = Caco-2 model, silybin alone, read-out: mean efflux ratio

Which efflux ratio at 180 min, 10 μM [1] does the source give for `COc1cc([C@H]2Oc3cc([C@H]4Oc5cc(O)cc(O)c5C(=O)[C@@H]4O)ccc3O[C@@H]2CO)ccc1O` [silybin A] here?
The efflux ratio at 180 min, 10 μM was 2.38 ± 0.27.

And the efflux ratio at 180 min, 10 μM [2]?
Its efflux ratio at 180 min, 10 μM is 5.62.

What does the source list for `COc1cc([C@@H]2Oc3cc([C@H]4Oc5cc(O)cc(O)c5C(=O)[C@@H]4O)ccc3O[C@H]2CO)ccc1O` [silybin B]?
efflux ratio at 180 min, 10 μM [1]: 2.33 ± 0.09; efflux ratio at 180 min, 10 μM [2]: 5.13
